Data taken from patent publication US10138384B2, “Ophthalmic and contact lens solutions using bicine” (priority 2000, dated 2018).
Counter-ions that a name gives are not always drawn.

Tests used:
C. albicans [1] = assay: In vitro microbicidal activity, 0.2% phosphate buffer with PHMB (Example 4); type: cell-based; settings: pH 7.2
C. albicans [2] = assay: In vitro microbicidal activity, 0.1% phosphate buffer with PHMB and hydrogen peroxide (Example 3B); type: cell-based; settings: additive 1%, PHMB 0.0001%, hydrogen peroxide 0.0060%; for C albicans log reduction: pH 7.0, 4 hours at room temperature; for Improvement (log reduction versus buffer control): pH 7.0, 4 hours, buffer control 0.41
Method: The solutions were made isotonic with sodium chloride and preserved with polyhexamethylene biquanide at 0.0001% and hydrogen peroxide at 0.0060%. Dequest […] was added as a stabilizer. The pH was adjusted to 7.0 with either 1 N sodium hydroxide. […] Subsequently, an aliquot of each solution was serial diluted onto agar plates and incubated for 48 hours at elevated temperatures. At the conclusion of the incubation period the plates are examined for the development of colonies. The log reduction was determined based on a comparison to the inoculum control. The following table provides the results of the in vitro studies.

[3] = Reduced preservative binding to contact lenses (radio-labeled C14-PHMB, gamma counter); settings: 1 percent w/v in phosphate buffer, 12 hours at 37 degrees C; for Preservative (C14-PHMB) binding, Average: average of lens A and B
From the text: Results were reported in ug/lens. […] The control was phosphate buffer and sodium chloride.

radio-labeled lysozyme = settings: 1 percent w/v in phosphate buffer, 12 hours at 37 degrees Celsius
Method: Contact lenses were soaked and heated in test solutions to which a radio-labeled lysozyme was present in a known amount for a period of 12 hours at 37 degrees Celsius. The lenses were rinsed with distilled water in order to remove residual solution. The lenses were then assayed for protein deposition using a Beckman BioGamma I counter. Results were reported in ug/lens.
Choline chloride was a 1 percent w/v solution. The matrix control was phosphate buffer and sodium chloride.

lysozyme = assay: Protein deposition inhibition on contact lenses (lysozyme, BCA method); settings: lenses soaked overnight in test solution (additives 1 percent w/v in phosphate buffer), then lysozyme 37 degrees C for 12 hours
Method: Contact lenses were soaked test solutions overnight. Afterwards, lysozyme was added to the tubes and warmed to 37 degrees C. for 12 hours. […] The lenses were assayed for protein deposition by the BCA method and detected on an HP PDA Spectrophotometer. Results were reported in ug/lens. […] The control was phosphate buffer and sodium chloride.

[4] = additive 0.5%, 0.2% phosphate buffer, PHMB 0.0001%, 4 hours at room temperature
[5] = additive 0.5%, 0.2% phosphate buffer, PHMB 0.0001%, 4 hours, buffer control 0.99

For `CCN(CC)CC` [triethylamine, Triethylamine], the “C albicans log reduction” value (C. albicans [1]; [4]) was 1.64 log and the “Improvement (log reduction versus buffer control)” value (C. albicans [1]; [5]) was 0.65.

In the case of `C[N+](C)(C)CCO` [choline, Choline], the “C albicans log reduction” value (C. albicans [1]; [4]) is reported as 2.24 log and the “Improvement (log reduction versus buffer control)” value (C. albicans [1]; [5]) is reported as 1.25.

For `OCCN(CCO)C(CO)(CO)CO` [bis-tris, Bis-(2-hydroxyethyl)imino-tns (hydroxymethyl) methane], the “C albicans log reduction” value (C. albicans [1]) was 1.21 log and the “Improvement (log reduction versus buffer control)” value (C. albicans [1]) was 0.22.

With `O=C(O)CN(CCO)CCO` [bicine, N,N-Bis(2-hydroxyethyl)-glycline] the “C albicans log reduction” value (C. albicans [2]) was 0.75 log and the “Improvement (log reduction versus buffer control)” value (C. albicans [2]) was 0.34.

For `C[N+](C)(C)CC(O)CC(=O)[O-]` (centres unmarked) [carnitine, Carnitine], the “C albicans log reduction” value (C. albicans [1]; [4]) was 1.28 log, the “Improvement (log reduction versus buffer control)” value (C. albicans [1]; [5]) was 0.29 and the “Preservative (C14-PHMB) binding, Average” value [3] was 11 ug/lens. For the same compound, the “Preservative (C14-PHMB) binding, Lens A” value [3] was 9 ug/lens and the “Preservative (C14-PHMB) binding, Lens B” value [3] was 13 ug/lens.

In the case of `C[N+](C)(C)CCO.[Cl-]` [Choline Chloride], the “Protein deposition, Average” value (radio-labeled lysozyme; average of lens A and B) is reported as 12 ug/lens, the “Protein deposition, LensA” value (radio-labeled lysozyme; lens A) is reported as 14 ug/lens and the “Protein deposition, LensB” value (radio-labeled lysozyme; lens B) is reported as 9 ug/lens. The “ug lysozyme per lens” value (lysozyme) was 4.1 ug/lens, the “Preservative (C14-PHMB) binding, Average” value [3] was 14.5 ug/lens and the “Preservative (C14-PHMB) binding, Lens A” value [3] was 18 ug/lens. The “Preservative (C14-PHMB) binding, Lens B” value [3] was 11 ug/lens.

With `CN(CC(=O)O)C(=N)N` [creatine, Creatine] the “C albicans log reduction” value (C. albicans [1]; [4]) was 1.72 log and the “Improvement (log reduction versus buffer control)” value (C. albicans [1]; [5]) was 0.73.

In the case of `O=C(O)CNC(CO)(CO)CO` [tricine, N-tris(hydroxymethyl)methyl glycine], the “C albicans log reduction” value (C. albicans [1]; [4]) is reported as 1.33 log and the “Improvement (log reduction versus buffer control)” value (C. albicans [1]; [5]) is reported as 0.34.

With `CN1CC(=O)NC1=N` [creatinine, Creatinine] the “C albicans log reduction” value (C. albicans [2]) was 1.42 log and the “Improvement (log reduction versus buffer control)” value (C. albicans [2]) was 1.01.

In the case of `C[N+](C)(C)CC(=O)O` [betaine HCI, Betaine HCl], the “C albicans log reduction” value (C. albicans [1]; [4]) is reported as 1.37 log, the “Improvement (log reduction versus buffer control)” value (C. albicans [1]; [5]) is reported as 0.38 and the “ug lysozyme per lens” value (lysozyme) is reported as 2.44 ug/lens. The “Preservative (C14-PHMB) binding, Average” value [3] was 7 ug/lens, the “Preservative (C14-PHMB) binding, Lens A” value [3] was 6 ug/lens and the “Preservative (C14-PHMB) binding, Lens B” value [3] was 8 ug/lens.
